Values of other authors, collected in patent US20170210704A1, “DEUTERO-PHENFORMIN DERIVATIVES” (Enlibrium Inc, priority 2016, published 2017).

Columns and labels:
[1] = patients treated for type 2 diabetes
cytochrome P450 2D6 = settings: 2D6 polymorphisms in humans; essentially no metabolism in poor metabolizers

CN(C)C(=N)N=C(N)N [metformin, Metformin]
risk of lactic acidosis [1]: 0.1 events per 1,000 patient years

[H]/N=C(/N)N/C(=N/[H])NCCc1ccccc1 [phenformin, Phenformin]
risk of lactic acidosis [1]: 0.6 events per 1,000 patient years
metabolism in ultrarapid metabolizers relative to poor metabolizers (cytochrome P450 2D6): 200 fold
